Results from ChEMBL document CHEMBL1201862, “PubChem BioAssay data set” (2004).
Calls of active or inactive are those of the source.

Legend:
[1] = target: Inward rectifier potassium channel 2 (Mus musculus, UniProt P35561); assay: Manual electrophysiological patch clamp assay for SAR compounds that inhibit/block inward-rectifying potassium ion channel Kir2.1. [Related pubchem assays: 1843 (Summary assay for Kir2.1 inhibitor assays.), 1672 (Primary HTS of 305616 compounds where 2592 were identified as active.)]; format: functional
[2] = target: Transitional endoplasmic reticulum ATPase (Homo sapiens, UniProt P55072, C522A); assay: Luminescence counterscreen assay for p97 inhibitors: dose response biochemical high throughput screening assay to identify inhibitors of the C522A mutant p97 ATPase: synthesized compounds. [Related pubchem assays: 1481, 1517, 1551 ]
[3] = target: Transitional endoplasmic reticulum ATPase (Homo sapiens, UniProt P55072); assay: Luminescence dose response biochemical high throughput screening assay for inhibitors of the p97 ATPase: synthesized compounds. [Related pubchem assays: 1481, 1517 ]
[4] = target: 5-hydroxytryptamine receptor 1E (Homo sapiens, UniProt P28566); assay: Counterscreen assay for S1P3 antagonists: Dose response cell-based high throughput screening assay to identify antagonists of the 5-Hydroxytryptamine Receptor Subtype 1E (5HT1E). [Related pubchem assays: 1429, 485 ]; format: functional
[5] = target: Sphingosine 1-phosphate receptor 3 (Homo sapiens, UniProt Q99500); assay: Dose response cell-based high throughput screening assay for antagonists of the Sphingosine 1-Phosphate Receptor 3 (S1P3). [Related pubchem assays: 1429, 485 ]; format: functional
[6] = luciferase reporter signal reduction – luminescence, H4-C neuroglioblastoma cells, dose response (AID 2458); format: functional, cell-based;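 note: H4 neuroglioblastoma cells stably carrying a luciferase reporter gene fusion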
BJ [7] = assay: cytotoxicity toward BJ-TERT fibroblasts, dose response, cell-based, RAS-independent, luminescence (AID 1933); format: functional; details: Homo sapiens
cells = format: functional, cell-based
[8] = inhibitors of SNCA 5'UTR-driven reporter translation, confirmation, H4 neuroglioma cells, luminescence (AID 1988); format: functional, cell-based
BJ [9] = assay: cells; format: functional, cell-based; details: Homo sapiens
BJ [10] = assay: cytotoxicity toward BJ-TERT-LT-ST fibroblasts, dose response, cell-based, RAS-independent, luminescence (AID 1935); format: functional; details: Homo sapiens;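 note: BJ fibroblasts immortalized with TERT plus LT and ST oncogenes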
[11] = cytotoxicity toward DRD oncogenic fibroblasts, dose response, cell-based, non-viral oncogenic, luminescence (AID 1934); format: functional; details: Homo sapiens
[12] = inhibitors of SNCA 5'UTR-driven translation, confirmation, luminescence, H4 neuroglioblastoma cells, dose confirmation (AID 2454); format: functional, cell-based;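 note: H4 neuroglioblastoma cells carrying an alpha-synuclein 5'UTR luciferase reporter; potency for inhibition of the luciferase signal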
[13] = target: T1, Sphingosine 1-phosphate receptor 2 (Homo sapiens, UniProt O95136); assay: Dose Response Cell Based Assay for Agonists of the S1P2 Receptor of Purchased Analogues. [Related pubchem assays: 729, 843, 854, 736 ]; format: functional
[14] = Luminescence Cell-Based Dose Retest to Confirm Inhibitors of Cancer Stem Cells. [Related pubchem assays (depositor defined):AID2717, AID2721]; format: functional; details: Homo sapiens
[15] = target: T1, Sphingosine 1-phosphate receptor 2; assay: Dose Response Cell Based Assay for Antagonists of the S1P2 Receptor. [Related pubchem assays: 856, 736 ]; format: functional
Galanin receptor type 2 = Galanin receptor type 2 (Homo sapiens, UniProt O43603); assay: Dose Response cell-based high-throughput screening assay to identify antagonists of galanin receptor 2 (GALR2). [Related pubchem assays: 828, 866 ]; format: functional
[16] = target: T2, Short transient receptor potential channel 4 (Mus musculus, UniProt Q9QUQ5); assay: mouse TRPC4 channel activators, dose response, cell-based, HEK293 TRPC4/mu-opioid, Fluo-4 calcium (AID 434937); format: functional
T2 sequence (Q9QUQ5 whole entry): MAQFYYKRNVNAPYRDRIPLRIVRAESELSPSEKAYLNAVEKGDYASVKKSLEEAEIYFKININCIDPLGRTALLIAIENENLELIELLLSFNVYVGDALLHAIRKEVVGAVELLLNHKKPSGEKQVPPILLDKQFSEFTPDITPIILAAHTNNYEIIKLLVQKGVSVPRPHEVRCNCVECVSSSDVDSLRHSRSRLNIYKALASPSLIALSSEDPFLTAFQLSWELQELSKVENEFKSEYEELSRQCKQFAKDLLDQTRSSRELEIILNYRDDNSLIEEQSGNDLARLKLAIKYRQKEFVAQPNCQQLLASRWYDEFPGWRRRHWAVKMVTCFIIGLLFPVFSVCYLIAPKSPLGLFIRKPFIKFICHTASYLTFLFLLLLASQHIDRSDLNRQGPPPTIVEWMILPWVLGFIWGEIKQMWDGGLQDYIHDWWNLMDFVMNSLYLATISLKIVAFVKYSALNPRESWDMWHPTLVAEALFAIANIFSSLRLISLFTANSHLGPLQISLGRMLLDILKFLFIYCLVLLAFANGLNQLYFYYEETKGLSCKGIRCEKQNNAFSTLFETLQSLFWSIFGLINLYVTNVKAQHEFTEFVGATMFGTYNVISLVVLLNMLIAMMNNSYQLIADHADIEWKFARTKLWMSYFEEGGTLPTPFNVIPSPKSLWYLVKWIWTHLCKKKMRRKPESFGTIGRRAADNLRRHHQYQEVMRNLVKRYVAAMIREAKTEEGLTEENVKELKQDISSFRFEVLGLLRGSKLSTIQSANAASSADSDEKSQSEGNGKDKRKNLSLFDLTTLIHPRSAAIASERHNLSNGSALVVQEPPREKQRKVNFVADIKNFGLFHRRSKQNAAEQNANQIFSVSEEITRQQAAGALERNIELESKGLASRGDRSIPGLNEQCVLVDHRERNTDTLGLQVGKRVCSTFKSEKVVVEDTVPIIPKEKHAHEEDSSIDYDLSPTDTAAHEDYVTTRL

[17] = target: T3, Heat shock factor protein 1 (Mus musculus, UniProt P38532); assay: HSF1 potentiators in luciferase reporter cells, confirmation, cell-based, NIH3T3, luminescence, dose retest (AID 435004); format: functional;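 note: stress induced by proteasome inhibitor MG132 added 30 min after compound; luciferase reporter driven by HSF1 response element in NIH3T3 cells; actives raise luminescence as potentiators of the MG132 stress response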
T3 sequence (P38532 whole entry): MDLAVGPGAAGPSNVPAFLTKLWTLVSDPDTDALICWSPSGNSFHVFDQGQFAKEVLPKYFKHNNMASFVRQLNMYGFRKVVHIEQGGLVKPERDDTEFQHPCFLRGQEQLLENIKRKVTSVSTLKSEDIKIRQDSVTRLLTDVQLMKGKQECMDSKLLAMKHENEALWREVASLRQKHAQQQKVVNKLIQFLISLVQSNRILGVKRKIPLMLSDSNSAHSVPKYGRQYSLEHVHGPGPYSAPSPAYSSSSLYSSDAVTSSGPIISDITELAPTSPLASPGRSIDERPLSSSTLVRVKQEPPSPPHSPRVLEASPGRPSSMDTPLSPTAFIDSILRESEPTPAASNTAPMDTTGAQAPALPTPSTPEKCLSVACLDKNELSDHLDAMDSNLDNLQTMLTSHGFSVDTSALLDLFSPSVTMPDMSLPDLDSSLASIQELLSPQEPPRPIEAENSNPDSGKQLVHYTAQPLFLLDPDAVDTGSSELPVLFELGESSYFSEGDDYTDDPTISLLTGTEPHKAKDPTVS

INS1 = assay: beta cell apoptosis inhibitors, cytokine rescue, dose response, luminescence, retest (AID 449756); format: functional, cell-based; details: Rattus norvegicus;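 note: cell death triggered by IL-1 beta plus TNF-alpha plus IFN-gamma mixture; protective hits raise ATP signal compared with cytokine alone wells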
[18] = Shn3 3'UTR reporter inhibitors, dose response, cell-based, Clone20 osteoblasts, firefly luciferase, cherry-picked (AID 624132); format: functional;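 note: firefly luciferase luminescence from reporter carrying the Shn3 3'UTR in osteoblasts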
[19] = HepG2 cell cytotoxicity, dose response, cytotoxicity control for Shn3 inhibitor project, CellTiter-Glo, cherry-picked (AID 624134); format: functional, cell-based
[20] = control 3'UTR Renilla luciferase suppression, dose response, counter-screen for Shn3 inhibitor project, cell-based, Clone20-Shn3RL, cherry-picked (AID 624133); format: functional
Cytochrome P450 2C9 = Cytochrome P450 2C9 (Homo sapiens, UniProt P11712)
[21] = enhancers of respiration in Yfh1-depleted yeast, dose response, Friedreich's ataxia, plus single-dose screen (AID 1465); format: functional;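 note: yeast depleted of Yfh1p frataxin homolog grown on glycerol needing respiration; WST-1 tetrazolium dye reduction as measure of cellular dehydrogenase metabolic activity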
[22] = target: 26S proteasome non-ATPase regulatory subunit 14 (Homo sapiens, UniProt O00487); assay: inhibition of proteasome subunit RPN11 – biochemical, fluorescence polarization, uHTS hits, confirmation (AID 602368); format: functional
[23] = target: 72 kDa type IV collagenase (Homo sapiens, UniProt P08253); assay: Dose Response validation of uHTS RPN11 inhibitor hits using a MMP-2 Fluorescence assay.; format: functional
Prothrombin = Prothrombin (Bos taurus, UniProt P00735); assay: thrombin inhibition, dose response, biochemical, fluorescence polarization, uHTS hits (AID 602369); format: functional
[24] = target: T4, Mannose-6-phosphate isomerase (Homo sapiens, UniProt P34949); assay: inhibitors of human PMI, primary screen, biochemical, fluorescence intensity, coupled assay (AID 1209)
T4 sequence (P34949 whole entry): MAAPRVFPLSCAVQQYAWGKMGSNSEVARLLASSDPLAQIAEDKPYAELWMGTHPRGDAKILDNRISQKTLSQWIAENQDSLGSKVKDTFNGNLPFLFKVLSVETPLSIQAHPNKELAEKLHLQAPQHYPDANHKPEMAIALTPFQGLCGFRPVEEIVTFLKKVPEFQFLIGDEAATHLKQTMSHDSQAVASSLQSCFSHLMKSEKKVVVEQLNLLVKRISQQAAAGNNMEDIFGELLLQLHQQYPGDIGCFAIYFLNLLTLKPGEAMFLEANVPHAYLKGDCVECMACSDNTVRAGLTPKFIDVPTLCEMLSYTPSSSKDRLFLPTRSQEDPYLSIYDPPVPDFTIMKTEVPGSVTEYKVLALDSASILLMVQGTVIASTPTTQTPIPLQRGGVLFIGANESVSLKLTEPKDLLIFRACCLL

[25] = inhibitors of Bluetongue virus cytopathic effect, confirmation, arbovirus, BSR cells (AID 1250); format: functional;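 note: protection from viral cytopathic effect measured as cell viability by ATP luminescence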
[26] = target: T5, Induced myeloid leukemia cell differentiation protein Mcl-1 (Homo sapiens, UniProt Q07820); format: functional
[27] = target: T4, Mannose-6-phosphate isomerase; assay: human PMI inhibitors, high substrate, primary screen, biochemical, fluorescence intensity, high mannose 6-phosphate (AID 1220)
[28] = target: T5, Induced myeloid leukemia cell differentiation protein Mcl-1; assay: MCL1-BIM BH3 interaction inhibitors, dose response, biochemical, fluorescence polarization, BIM-BH3 peptide, 1536-well (AID 2217)
Bcl-2-like protein 1 = Bcl-2-like protein 1 (Homo sapiens, UniProt Q07817); assay: BCL-XL inhibitors, dose response, selectivity assay for MCL1 inhibitor project, biochemical, fluorescence polarization, 1536-well (AID 2218)
Genome polyprotein = Genome polyprotein (dengue virus type 2, UniProt P29990); assay: Dengue-2 NS5 methyltransferase inhibitors, primary screen, biochemical, confirmation dose response (AID 588689); format: functional
Fatty acid synthase [29] = target: T6, Fatty acid synthase (Homo sapiens, UniProt P49327); assay: FAS thioesterase domain inhibitors, dose response, biochemical, endpoint fluorescence intensity, uHTS hits (AID 624327); format: functional;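 note: fluorescence from hydrolysis of an O-methyl fluorescein acyl ester substrate by the enzyme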
Fatty acid synthase [30] = target: T6, Fatty acid synthase; assay: FAS thioesterase domain inhibitors, dose response, biochemical, kinetic fluorescence intensity (AID 624326); format: functional;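 note: rate of fluorescence rise from hydrolysis of a fluorogenic O-methyl fluorescein ester substrate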
[31] = Luminescence Cell-Based Dose Confirmation HTS to Identify Inhibitors of Polyadenylation.; format: functional

T5 sequence (Q07820 whole entry): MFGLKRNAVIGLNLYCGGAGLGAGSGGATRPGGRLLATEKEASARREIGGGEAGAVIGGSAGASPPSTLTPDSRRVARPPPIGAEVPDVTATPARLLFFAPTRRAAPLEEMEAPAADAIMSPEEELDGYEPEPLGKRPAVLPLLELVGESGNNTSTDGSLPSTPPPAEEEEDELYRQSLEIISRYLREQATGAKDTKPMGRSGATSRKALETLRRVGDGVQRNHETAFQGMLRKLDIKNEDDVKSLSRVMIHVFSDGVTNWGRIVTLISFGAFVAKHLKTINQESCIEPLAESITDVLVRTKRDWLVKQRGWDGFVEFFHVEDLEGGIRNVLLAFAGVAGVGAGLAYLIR
T6 sequence (P49327 whole entry, the tested form may be a part): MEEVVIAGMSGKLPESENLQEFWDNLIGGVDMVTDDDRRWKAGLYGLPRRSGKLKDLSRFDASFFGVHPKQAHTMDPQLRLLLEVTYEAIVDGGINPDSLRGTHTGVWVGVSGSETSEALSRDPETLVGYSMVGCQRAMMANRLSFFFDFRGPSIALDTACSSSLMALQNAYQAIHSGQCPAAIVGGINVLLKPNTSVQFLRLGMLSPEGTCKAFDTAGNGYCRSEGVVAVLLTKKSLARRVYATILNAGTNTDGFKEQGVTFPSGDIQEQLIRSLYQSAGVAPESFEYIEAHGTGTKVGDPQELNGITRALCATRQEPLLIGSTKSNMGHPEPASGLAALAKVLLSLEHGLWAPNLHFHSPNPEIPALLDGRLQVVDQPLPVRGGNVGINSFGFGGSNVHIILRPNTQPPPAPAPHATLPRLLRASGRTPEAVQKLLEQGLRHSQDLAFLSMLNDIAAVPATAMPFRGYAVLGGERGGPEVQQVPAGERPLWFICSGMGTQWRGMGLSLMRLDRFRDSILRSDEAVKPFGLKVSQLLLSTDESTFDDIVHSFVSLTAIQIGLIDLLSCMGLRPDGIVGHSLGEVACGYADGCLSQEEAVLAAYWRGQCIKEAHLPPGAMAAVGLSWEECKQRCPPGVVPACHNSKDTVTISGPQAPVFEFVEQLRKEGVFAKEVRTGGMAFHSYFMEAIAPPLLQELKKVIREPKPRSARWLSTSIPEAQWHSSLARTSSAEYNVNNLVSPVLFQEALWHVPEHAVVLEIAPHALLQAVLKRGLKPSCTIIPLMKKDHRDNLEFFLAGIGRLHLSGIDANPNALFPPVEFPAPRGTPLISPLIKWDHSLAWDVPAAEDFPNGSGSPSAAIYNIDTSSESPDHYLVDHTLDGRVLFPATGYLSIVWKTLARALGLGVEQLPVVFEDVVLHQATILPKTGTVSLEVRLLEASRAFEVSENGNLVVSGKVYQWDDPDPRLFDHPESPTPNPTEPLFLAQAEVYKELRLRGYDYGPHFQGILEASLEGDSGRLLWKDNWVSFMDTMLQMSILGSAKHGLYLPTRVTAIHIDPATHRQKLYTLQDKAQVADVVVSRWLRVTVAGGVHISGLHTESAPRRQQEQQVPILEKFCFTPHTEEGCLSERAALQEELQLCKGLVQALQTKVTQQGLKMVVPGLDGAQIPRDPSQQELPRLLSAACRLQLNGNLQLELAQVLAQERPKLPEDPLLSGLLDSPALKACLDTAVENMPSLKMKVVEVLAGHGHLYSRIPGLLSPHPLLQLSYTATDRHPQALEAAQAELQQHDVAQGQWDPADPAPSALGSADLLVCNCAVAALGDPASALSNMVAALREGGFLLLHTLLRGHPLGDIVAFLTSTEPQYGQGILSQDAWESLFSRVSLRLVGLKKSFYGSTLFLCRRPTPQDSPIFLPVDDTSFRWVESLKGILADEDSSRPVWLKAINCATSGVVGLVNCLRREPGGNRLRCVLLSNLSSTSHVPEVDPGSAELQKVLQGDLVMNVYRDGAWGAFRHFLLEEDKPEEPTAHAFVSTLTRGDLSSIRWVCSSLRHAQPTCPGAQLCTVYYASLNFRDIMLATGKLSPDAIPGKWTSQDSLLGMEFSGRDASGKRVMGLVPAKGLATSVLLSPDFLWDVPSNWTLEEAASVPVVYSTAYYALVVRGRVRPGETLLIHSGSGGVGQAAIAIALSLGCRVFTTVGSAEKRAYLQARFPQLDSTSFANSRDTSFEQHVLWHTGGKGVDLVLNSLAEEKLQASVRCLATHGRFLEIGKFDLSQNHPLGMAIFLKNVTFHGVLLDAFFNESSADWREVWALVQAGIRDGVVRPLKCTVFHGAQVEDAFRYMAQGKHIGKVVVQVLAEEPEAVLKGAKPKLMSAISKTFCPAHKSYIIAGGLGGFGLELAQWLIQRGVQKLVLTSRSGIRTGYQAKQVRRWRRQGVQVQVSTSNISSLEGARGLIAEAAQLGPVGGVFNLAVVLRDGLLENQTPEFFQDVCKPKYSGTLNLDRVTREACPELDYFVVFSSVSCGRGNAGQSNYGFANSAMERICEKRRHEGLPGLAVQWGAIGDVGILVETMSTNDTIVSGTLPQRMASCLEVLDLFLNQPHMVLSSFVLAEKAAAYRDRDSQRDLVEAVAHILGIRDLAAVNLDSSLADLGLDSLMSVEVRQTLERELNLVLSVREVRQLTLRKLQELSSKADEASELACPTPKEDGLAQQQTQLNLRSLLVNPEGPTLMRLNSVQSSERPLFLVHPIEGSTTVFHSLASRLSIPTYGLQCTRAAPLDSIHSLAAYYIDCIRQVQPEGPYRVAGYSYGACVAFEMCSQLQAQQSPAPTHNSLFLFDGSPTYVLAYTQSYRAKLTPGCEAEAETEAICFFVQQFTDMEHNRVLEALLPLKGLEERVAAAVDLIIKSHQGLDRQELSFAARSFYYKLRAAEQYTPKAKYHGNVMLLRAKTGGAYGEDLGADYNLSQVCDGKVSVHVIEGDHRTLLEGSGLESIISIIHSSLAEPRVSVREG
T1 sequence (O95136 whole entry): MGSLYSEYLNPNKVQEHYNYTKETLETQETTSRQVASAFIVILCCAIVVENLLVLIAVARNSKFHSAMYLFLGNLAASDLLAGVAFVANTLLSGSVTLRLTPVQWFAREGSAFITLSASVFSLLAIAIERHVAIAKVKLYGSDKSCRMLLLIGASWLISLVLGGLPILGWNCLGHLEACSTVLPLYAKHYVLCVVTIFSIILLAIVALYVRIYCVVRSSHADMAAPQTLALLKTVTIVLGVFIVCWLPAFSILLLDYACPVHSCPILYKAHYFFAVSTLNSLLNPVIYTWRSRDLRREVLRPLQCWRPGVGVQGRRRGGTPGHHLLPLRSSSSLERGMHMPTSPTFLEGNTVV
Cytochrome P450 2C9, sequence (P11712 whole entry): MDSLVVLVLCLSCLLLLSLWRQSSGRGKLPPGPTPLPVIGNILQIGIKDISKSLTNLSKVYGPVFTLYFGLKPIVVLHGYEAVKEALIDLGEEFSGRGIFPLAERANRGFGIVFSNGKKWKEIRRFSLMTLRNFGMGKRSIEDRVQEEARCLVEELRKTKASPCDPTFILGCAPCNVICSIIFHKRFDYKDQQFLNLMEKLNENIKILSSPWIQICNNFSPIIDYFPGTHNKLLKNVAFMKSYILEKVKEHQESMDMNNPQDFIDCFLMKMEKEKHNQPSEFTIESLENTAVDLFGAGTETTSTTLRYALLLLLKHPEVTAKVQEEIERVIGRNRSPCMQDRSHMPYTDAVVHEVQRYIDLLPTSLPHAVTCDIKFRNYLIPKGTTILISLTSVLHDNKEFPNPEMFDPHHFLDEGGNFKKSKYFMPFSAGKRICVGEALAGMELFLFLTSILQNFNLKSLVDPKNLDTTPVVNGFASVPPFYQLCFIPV
Inward rectifier potassium channel 2, sequence (P35561 whole entry): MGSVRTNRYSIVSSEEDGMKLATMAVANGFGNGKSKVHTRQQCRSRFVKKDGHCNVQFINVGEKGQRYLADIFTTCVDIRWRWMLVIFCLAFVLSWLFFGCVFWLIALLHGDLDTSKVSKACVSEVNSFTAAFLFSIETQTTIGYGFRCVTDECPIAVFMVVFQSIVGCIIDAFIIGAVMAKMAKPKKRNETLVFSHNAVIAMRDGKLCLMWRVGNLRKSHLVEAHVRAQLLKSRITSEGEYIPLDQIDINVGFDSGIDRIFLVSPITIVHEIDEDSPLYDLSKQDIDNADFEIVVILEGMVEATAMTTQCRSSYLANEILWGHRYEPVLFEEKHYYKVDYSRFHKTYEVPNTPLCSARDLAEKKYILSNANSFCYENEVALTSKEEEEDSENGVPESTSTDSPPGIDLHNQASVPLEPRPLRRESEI
Transitional endoplasmic reticulum ATPase (Homo sapiens, UniProt P55072, C522A), sequence (P55072 2-806 C522A limits assumed): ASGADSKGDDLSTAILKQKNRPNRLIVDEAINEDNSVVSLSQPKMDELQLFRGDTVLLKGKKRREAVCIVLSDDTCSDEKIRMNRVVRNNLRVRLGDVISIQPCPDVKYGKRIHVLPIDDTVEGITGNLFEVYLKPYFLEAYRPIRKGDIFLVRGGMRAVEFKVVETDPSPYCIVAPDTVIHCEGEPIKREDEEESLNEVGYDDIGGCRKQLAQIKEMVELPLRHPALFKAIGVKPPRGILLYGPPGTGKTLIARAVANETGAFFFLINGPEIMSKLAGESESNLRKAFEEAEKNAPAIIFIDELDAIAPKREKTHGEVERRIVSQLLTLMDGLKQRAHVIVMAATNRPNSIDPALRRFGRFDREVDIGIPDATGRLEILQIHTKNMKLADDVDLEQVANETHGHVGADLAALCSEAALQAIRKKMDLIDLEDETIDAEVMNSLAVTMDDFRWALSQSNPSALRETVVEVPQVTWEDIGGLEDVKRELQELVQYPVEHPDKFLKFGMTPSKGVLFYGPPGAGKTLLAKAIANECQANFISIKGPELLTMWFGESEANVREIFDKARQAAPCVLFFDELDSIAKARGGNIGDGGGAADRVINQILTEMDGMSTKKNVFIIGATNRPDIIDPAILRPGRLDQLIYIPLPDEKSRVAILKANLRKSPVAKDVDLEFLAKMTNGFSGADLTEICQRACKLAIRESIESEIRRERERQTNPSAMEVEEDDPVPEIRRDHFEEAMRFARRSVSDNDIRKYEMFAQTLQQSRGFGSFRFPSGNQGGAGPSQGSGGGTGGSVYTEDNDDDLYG

COc1ccc(CNCc2cc(F)cc(F)c2)cc1
IC50 [1]: 7.22 µM (active)

N#C/C=C/c1ccccc1Nc1ccc(S(N)(=O)=O)cc1
IC50 [2]: > 50 µM (not active) | IC50 [3]: > 50 µM (not active)

CSc1ccccc1NC(=O)C1CC(c2ccccc2O)=NO1 (centres undefined)
IC50 [4]: > 50 µM (not active) | IC50 [5]: > 50 µM (not active)

CCOc1ccc(S(=O)(=O)Nc2cc(OC)ccc2OC)cc1
EC50 [6]: 0.553 µM (active) | EC50 (BJ [7]): 0.451 µM (active) | EC50 (cells): 0.839 µM (active) | EC50 [8]: < 0.1 µM (active) | EC50 (BJ [9]): 21.2 µM (active) | EC50 (BJ [10]): 0.495 µM (inconclusive) | EC50 [11]: 0.965 µM (inconclusive) | EC50 [12]: 0.947 µM (active)

Cc1cc(C(=O)CN2C(=O)C(=O)N(Cc3ccccc3)C2=O)c(C)n1Cc1ccccc1
EC50 [13]: > 30 µM (not active) | AC50 [14]: 2.54 µM (active)

Cc1ccc2[nH]c3c(N4CCc5ccccc5C4)ncnc3c2c1
IC50 [15]: 3.63 µM (active) | IC50 (Galanin receptor type 2): > 42 µM (not active) | EC50 [16]: 5.96 µM (active) | EC50 [17]: 103 µM (active) | AC50 (INS1): 1.38 µM (active) | AC50 [18]: 1.18 µM (active) | AC50 [19]: 33.8 µM (active) | AC50 [20]: < 0.26 µM (active) | AC50 (Cytochrome P450 2C9): 2.24 µM (inconclusive)

CC(=O)N1CCc2cc(NN=C3C(=O)CC(C)(C)CC3=O)ccc21
EC50 [21]: > 100 µM (active) | IC50 [22]: 35.5 µM (active) | IC50 [23]: > 100 µM (inactive) | IC50 (Prothrombin): 31.5 µM (active)

Cc1cc(/N=C/c2c(O)ccc3cc(Br)ccc23)no1
IC50 [24]: > 50 µM (not active) | IC50 [25]: 31.8 µM (active) | IC50 [26]: > 54 µM (not active) | IC50 [27]: > 50 µM (not active)

O=C(O)COc1ccccc1C(Nc1ccccn1)c1cc(Cl)c2cccnc2c1O (centres undefined)
IC50 [28]: 1.74 µM (active) | IC50 (Bcl-2-like protein 1): > 109 µM (not active) | IC50 [26]: 9.35 µM (active) | IC50 (Genome polyprotein): 43.3 µM (active) | IC50 (Fatty acid synthase [29]): 18.5 µM (active) | IC50 (Fatty acid synthase [30]): 14.3 µM (active)

CC(C)=CCOc1c2ccoc2cc2oc(=O)ccc12 [ISOIMPERATORIN]
EC50 [31]: > 120 µM (not active)
